Legend:
[1] = target: Carbonic anhydrase 1 (Homo sapiens, UniProt P00915); experiment: Inhibition of recombinant human carbonic anhydrase 1 preincubated with enzyme for 15 mins by phenol red dye based stopped flow CO2 hydration assay
[2] = target: Carbonic anhydrase 2 (Homo sapiens, UniProt P00918); experiment: Inhibition of recombinant human carbonic anhydrase 2 preincubated with enzyme for 15 mins by phenol red dye based stopped flow CO2 hydration assay
[3] = target: Carbonic anhydrase 5A, mitochondrial (Homo sapiens, UniProt P35218); experiment: Inhibition of recombinant human carbonic anhydrase VA preincubated with enzyme for 15 mins by phenol red dye based stopped flow CO2 hydration assay
Chain of Carbonic anhydrase 5A, mitochondrial (P35218 whole entry): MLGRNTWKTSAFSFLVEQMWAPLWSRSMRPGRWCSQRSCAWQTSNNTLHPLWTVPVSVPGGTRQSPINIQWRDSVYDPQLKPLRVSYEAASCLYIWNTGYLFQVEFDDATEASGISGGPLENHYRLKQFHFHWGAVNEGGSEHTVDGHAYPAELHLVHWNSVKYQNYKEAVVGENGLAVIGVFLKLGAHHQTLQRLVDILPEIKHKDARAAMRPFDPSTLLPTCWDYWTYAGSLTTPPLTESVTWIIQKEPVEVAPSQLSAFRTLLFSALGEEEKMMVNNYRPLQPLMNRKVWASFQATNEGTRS

Chain of Carbonic anhydrase 1 (P00915 whole entry): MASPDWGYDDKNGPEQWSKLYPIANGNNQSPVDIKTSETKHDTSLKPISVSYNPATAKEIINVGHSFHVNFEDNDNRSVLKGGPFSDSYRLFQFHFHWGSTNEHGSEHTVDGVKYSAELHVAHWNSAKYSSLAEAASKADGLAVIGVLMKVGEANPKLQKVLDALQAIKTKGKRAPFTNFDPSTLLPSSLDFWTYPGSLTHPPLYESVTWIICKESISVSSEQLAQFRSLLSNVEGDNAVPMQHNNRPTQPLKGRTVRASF

Row | SMILES | Ki [1] [µM] | Ki [2] [µM] | Ki [3] [µM]
1 | COc1cc(CC(=O)O)ccc1OS(=O)(=O)O | > 10 | > 10 | –
2 | O=c1[nH]nc(SCc2ccc(Cl)cc2Cl)c(=O)[nH]1 | > 10 | > 10 | –
3 | Nc1ccc2c(n1)[nH]c1ccccc12 | > 10 | > 10 | –
4 | CC(=O)c1cc(O)cc(O)c1 | > 10 | > 10 | –
5 | Nc1nc(F)nc2c1ncn2[C@@H]1O[C@H](COP(=O)(O)O)[C@@H](O)[C@@H]1O [FLUDARABINE PHOSPHATE] | > 10 | > 10 | 0.131
6 | COc1cc2nccc(Oc3ccc(NC(=O)NC4CC4)c(Cl)c3)c2cc1C(N)=O [LENVATINIB] | > 10 | > 10 | 0.133
7 | NC(=O)c1cn(Cc2c(F)cccc2F)nn1 [RUFINAMIDE] | > 10 | > 10 | 0.344

Further lines, results first:

Row | Ki [1] [µM] | Ki [2] [µM] | Ki [3] [µM] | SMILES
8 | > 10 | > 10 | 8.71 | O=C(Cc1nnc(O)nc1O)N/N=C/c1c(O)ccc2ccccc12
9 | > 10 | > 10 | > 10 | O=C(COc1ccc2c3c(c(=O)oc2c1)CCC3)c1ccc(Cl)cc1
10 | > 10 | > 10 | – | O=C(CCNc1n[nH]c(=O)[nH]c1=O)N/N=C\c1c(F)cccc1Cl
11 | > 10 | > 10 | – | O=C(CSc1ccncc1)N[C@@H]1C(=O)N2C(C(=O)O)=C(CO)CS[C@H]12
12 | > 10 | > 10 | 9.75 | Nc1nc(=O)c2nc(CNc3ccc(C(=O)N[C@H](CCC(=O)O)C(=O)O)cc3)cnc2[nH]1

— ChEMBL document CHEMBL4359866, “A computer-assisted discovery of novel potential anti-obesity compounds as selective carbonic anhydrase VA inhibitors” (Eur J Med Chem, 2019)
